# Measured values: ChEMBL document CHEMBL4732077, “Potent and orally active purine-based fetal hemoglobin inducers for treating β-thalassemia and sickle cell disease” (Eur J Med Chem, 2021)
# Active and inactive are the calls of the source. The rule behind the calls is not given here.
# Key:
# Mus musculus [1] = test: Antianemic effect in sickle cell disease mouse B6 model assessed as RBC level at 100 mg/kg, ip once daily, five days a week for 4 weeks (reference value: 7.23 +/- 0.75 M/uL); type: functional
# Mus musculus [2] = test: Antianemic effect in sickle cell disease mouse B6 model assessed as reticulocytes level at 100 mg/kg, ip once daily, five days a week for 4 weeks (reference value: 57.34 +/- 3.67 %); type: functional
# Mus musculus [3] = test: Antianemic effect in sickle cell disease mouse B6 model assessed as F-cell level at 100 mg/kg, ip once daily, five days a week for 4 weeks (reference value: 1.63 +/- 0.11 %); type: functional
# Erythrocyte [4] = test: Induction of beta-globin gene expression in human erythrocytes at 147 uM after 3 days by RT-PCR analysis; type: functional, cell-based; conditions: time 3.0 day
# Mus musculus [5] = test: Antianemic effect in sickle cell disease mouse B6 model assessed as WBC level at 100 mg/kg, ip once daily, five days a week for 4 weeks (reference value: 34.15 +/- 5.85 K/uL); type: functional
# [6] = Induction of gamma-globin gene expression in human erythrocytes at 100 uM after 3 days by RT-PCR analysis relative to control; type: functional, Erythrocyte; conditions: time 3 day
# Mus musculus [7] = test: Antianemic effect in sickle cell disease mouse B6 model assessed as fetal hemoglobin level at 100 mg/kg, ip once daily, five days a week for 4 weeks (reference value: 0.2 +/- 0.02 %); type: functional
# Mus musculus [8] = test: Antianemic effect in sickle cell disease mouse B6 model assessed as neutrophils level at 100 mg/kg, ip once daily, five days a week for 4 weeks (reference value: 13.39 +/- 4.65 K/uL); type: functional
# Mus musculus [9] = test: Antianemic effect in sickle cell disease mouse B6 model assessed as sickle cell level at 100 mg/kg, ip once daily, five days a week for 4 weeks (reference value: 16.78 +/- 1.9 %); type: functional
# Erythrocyte [10] = test: Induction of gamma-globin gene expression in human erythrocytes at 147 uM after 3 days by RT-PCR analysis; type: functional, cell-based; conditions: time 3.0 day
# Mus musculus [11] = test: Antianemic effect in sickle cell disease mouse B6 model assessed as hemoglobin level at 100 mg/kg, ip once daily, five days a week for 4 weeks (reference value: 7.46 +/- 0.7 g/dl); type: functional
# [12] = Cytotoxicity against human erythrocytes assessed as cell viability after 3 days alamar blue assay; type: cell-based, Erythrocyte; conditions: time 3 day
# Mus musculus [13] = test: Antianemic effect in sickle cell disease mouse B6 model assessed as fetal hemoglobin level at 100 mg/kg, po twice daily, five days a week for 4 weeks (reference value: 0.2 +/- 0.02 %); type: functional
# [14] = Induction of CPOX gene expression in human erythrocyte at 1 uM after 3 days by RT-PCR analysis relative to control; type: functional; conditions: time 3 day
# [15] = Cmax in Sprague-Dawley rat at 20 mg/kg, po measured upto 24 hrs by LC-MS/MS analysis; type: ADME, organism-based; design: route oral, dose 20 mg/kg, time <=24; conditions: in vivo
# [16] = Induction of NFE2L2 gene expression in human erythrocyte at 1 uM after 3 days by RT-PCR analysis relative to control; type: functional; conditions: time 3 day
# Mus musculus [17] = test: Antianemic effect in sickle cell disease mouse B6 model assessed as hemoglobin level at 100 mg/kg, po twice daily, five days a week for 4 weeks (reference value: 7.46 +/- 0.7 g/dl); type: functional
# Mus musculus [18] = test: Antianemic effect in sickle cell disease mouse B6 model assessed as WBC level at 100 mg/kg, po twice daily, five days a week for 4 weeks (reference value: 34.15 +/- 5.85 K/uL); type: functional
# [19] = AUC (0 to infinity) in Sprague-Dawley rat at 20 mg/kg, po measured upto 24 hrs by LC-MS/MS analysis; type: ADME, organism-based; design: route oral, dose 20 mg/kg, time <=24; conditions: in vivo
# Mus musculus [20] = test: Antianemic effect in sickle cell disease mouse B6 model assessed as neutrophils level at 100 mg/kg, po twice daily, five days a week for 4 weeks (reference value: 13.39 +/- 4.65 K/uL); type: functional
# Mus musculus [21] = test: Antianemic effect in sickle cell disease mouse B6 model assessed as reticulocytes level at 100 mg/kg, po twice daily, five days a week for 4 weeks (reference value: 57.34 +/- 3.67 %); type: functional
# Mus musculus [22] = test: Antianemic effect in sickle cell disease mouse B6 model assessed as F-cell level at 50 mg/kg, po twice daily, five days a week for 4 weeks (reference value: 1.63 +/- 0.11 %); type: functional
# Mus musculus [23] = test: Antianemic effect in sickle cell disease mouse B6 model assessed as fetal hemoglobin level at 50 mg/kg, po twice daily, five days a week for 4 weeks (reference value: 0.2 +/- 0.02 %); type: functional
# [24] = Downregulation of c-MYB gene expression in human erythrocyte at 1 uM after 3 days by RT-PCR analysis relative to control; type: functional; conditions: time 3 day
# [25] = Cytotoxicity against human erythrocytes assessed as cell viability at 2 uM after 3 days alamar blue assay relative to control; type: cell-based, Erythrocyte; conditions: time 3 day, read-out: Activity
# Mus musculus [26] = test: Antianemic effect in sickle cell disease mouse B6 model assessed as F-cell level at 100 mg/kg, po twice daily, five days a week for 4 weeks (reference value: 1.63 +/- 0.11 %); type: functional
# Mus musculus [27] = test: Antianemic effect in sickle cell disease mouse B6 model assessed as RBC level at 100 mg/kg, po twice daily, five days a week for 4 weeks (reference value: 7.23 +/- 0.75 M/uL); type: functional
# Mus musculus [28] = test: Antianemic effect in sickle cell disease mouse B6 model assessed as RBC level at 50 mg/kg, po twice daily, five days a week for 4 weeks (reference value: 7.23 +/- 0.75 M/uL); type: functional
# Erythrocyte [29] = test: Induction of gamma-globin gene expression in human erythrocytes at 0.5 uM after 3 days by RT-PCR analysis; type: functional, cell-based; conditions: time 3.0 day
# Mus musculus [30] = test: Antianemic effect in sickle cell disease mouse B6 model assessed as sickle cell level at 50 mg/kg, po twice daily, five days a week for 4 weeks (reference value: 16.78 +/- 1.9 %); type: functional
# Erythrocyte [31] = test: Cytotoxicity against human erythrocytes assessed as cell viability at 1 uM after 3 days alamar blue assay; type: cell-based; conditions: 72 h, time 3 day
# Erythrocyte [32] = test: Induction of gamma-globin gene expression in human erythrocytes at 0.5 to 1 uM after 3 days Western blot analysis; type: functional, cell-based; conditions: dose 0.5-1 µM, time 3.0 day
# Erythrocyte [33] = test: Downregulation of […] expression in human erythrocyte at 1 uM after 3 days by Western blot analysis; type: functional, tissue-based; conditions: time 3.0 day
# [34] = Downregulation of c-MYB gene expression in human erythrocyte at 0.5 uM after 3 days by RT-PCR analysis relative to control; type: functional; conditions: time 3 day
# Erythrocyte [35] = test: Cytotoxicity against human erythrocytes assessed as cell viability at 4 uM after 3 days alamar blue assay; type: cell-based; conditions: 72 h, time 3 day
# Mus musculus [36] = test: Antianemic effect in sickle cell disease mouse B6 model assessed as neutrophils level at 50 mg/kg, po twice daily, five days a week for 4 weeks (reference value: 13.39 +/- 4.65 K/uL); type: functional
# Erythrocyte [37] = test: Induction of beta-globin gene expression in human erythrocytes at 0.5 uM after 3 days by RT-PCR analysis; type: functional, cell-based; conditions: time 3.0 day
# [38] = Induction of NFE2L2 gene expression in human erythrocyte at 0.5 uM after 3 days by RT-PCR analysis relative to control; type: functional; conditions: time 3 day
# [39] = molecular target: Histone deacetylase (Homo sapiens) (UniProt Q13547+O15379+Q9UBN7+Q92769+Q9UQL6+Q8WUI4+Q9BY41+Q96DB2+P56524+Q9UKV0+Q969S8); test: Inhibition of HDAC in human erythrocyte cells assessed as increase in acetylation of histone H4 at 0.5 to 1 uM after 3 days by Western blot analysis; type: cell-based; conditions: dose 0.5-1 µM, time 3.0 day
# [40] = Half life in Sprague-Dawley rat at 5 mg/kg, iv measured upto 24 hrs by LC-MS/MS analysis; type: ADME, organism-based; conditions: in vivo
# [41] = Induction of gamma-globin gene expression in human erythrocytes at 1 uM after 3 days by RT-PCR analysis relative to control; type: functional, Erythrocyte; conditions: time 3 day
# [42] = Induction of gamma-globin gene expression in human HU-resistant primary erythrocytes at 0.5 uM after 3 days by RT-PCR analysis relative to control; type: functional, Erythrocyte; conditions: time 3 day
# [43] = Induction of GATA1 gene expression in human erythrocyte at 1 uM after 3 days by RT-PCR analysis relative to control; type: functional; conditions: time 3 day
# [44] = Induction of gamma-globin gene expression in human erythrocytes at 2 uM after 3 days by RT-PCR analysis relative to control; type: functional, Erythrocyte; conditions: time 3 day
# [45] = AUC (0 to infinity) in Sprague-Dawley rat at 5 mg/kg, iv measured upto 24 hrs by LC-MS/MS analysis; type: ADME, organism-based; design: route intravenous, dose 5 mg/kg, time <=24; conditions: in vivo
# [46] = Water solubility of compound at pH 7.4 after 24 hrs by LC/MS analysis; type: physicochemical; conditions: buffer, pH 7.4, 24 h
# Mus musculus [47] = test: Antianemic effect in sickle cell disease mouse B6 model assessed as reticulocytes level at 50 mg/kg, po twice daily, five days a week for 4 weeks (reference value: 57.34 +/- 3.67 %); type: functional
# Mus musculus [48] = test: Antianemic effect in sickle cell disease mouse B6 model assessed as WBC level at 50 mg/kg, po twice daily, five days a week for 4 weeks (reference value: 34.15 +/- 5.85 K/uL); type: functional
# Mus musculus [49] = test: Antianemic effect in sickle cell disease mouse B6 model assessed as sickle cell level at 100 mg/kg, po twice daily, five days a week for 4 weeks (reference value: 16.78 +/- 1.9 %); type: functional
# [50] = Oral bioavailability in Sprague-Dawley rat at 20 mg/kg measured upto 24 hrs by LC-MS/MS analysis; type: ADME, organism-based; conditions: in vivo
# [51] = Clearance in Sprague-Dawley rat at 5 mg/kg, iv measured upto 24 hrs by LC-MS/MS analysis; type: ADME, organism-based; conditions: in vivo
# Mus musculus [52] = test: Antianemic effect in sickle cell disease mouse B6 model assessed as hemoglobin level at 50 mg/kg, po twice daily, five days a week for 4 weeks (reference value: 7.46 +/- 0.7 g/dl); type: functional
# [53] = Induction of GATA1 gene expression in human erythrocyte at 0.5 uM after 3 days by RT-PCR analysis relative to control; type: functional; conditions: time 3 day
# [54] = Half life in Sprague-Dawley rat at 20 mg/kg, po measured upto 24 hrs by LC-MS/MS analysis; type: ADME, organism-based; conditions: in vivo
# [55] = Induction of CPOX gene expression in human erythrocyte at 0.5 uM after 3 days by RT-PCR analysis relative to control; type: functional; conditions: time 3 day
# Erythrocyte [56] = test: Induction of gamma-globin gene expression in human erythrocytes after 3 days by RT-PCR analysis; type: functional, cell-based; conditions: dose 0.06-2 µM, time 3.0 day
# [57] = Volume of distribution at steady state in Sprague-Dawley rat at 5 mg/kg, iv measured upto 24 hrs by LC-MS/MS analysis; type: ADME, organism-based; conditions: in vivo, read-out: Vdss
smiles,measurement,setting,value
NC(=O)NO [HYDROXYUREA],Activity,Mus musculus [1],6.34 M/uL
same,Activity,Mus musculus [2],50.92%
same,Activity,Mus musculus [3],1.3%
same,Activity,Erythrocyte [4],Active
same,Activity,Mus musculus [5],23.02 K/uL
same,fold change (FC),[6],2.5
same,Activity,Mus musculus [7],0.23%
same,Activity,Mus musculus [8],9.75 K/uL
same,Activity,Mus musculus [9],14.7%
same,Activity,Erythrocyte [10],Active
same,Activity,Mus musculus [11],6.7 g/dL
same,CC50 at 72 h,[12],147 µM
CCN1CCN(c2nc(Nc3cccc(NC(=O)C#Cc4ccc(C)cc4)c3)c3ncn(CC)c3n2)CC1.Cl.Cl,Activity,Mus musculus [13],0.3%
same,fold change (FC),[14],2.2
same,Cmax,[15],2730 ng/mL
same,fold change (FC),[16],2.3
same,Activity,Mus musculus [17],8.05 g/dL
same,Activity,Mus musculus [18],44.12 K/uL
same,AUC(0-inf),[19],9000 ng·h/mL
same,Activity,Mus musculus [20],15.64 K/uL
same,Activity,Mus musculus [21],54.66%
same,Activity,Mus musculus [22],2.15%
same,Activity,Mus musculus [23],0.28%
same,fold change (FC),[24],0.6
same,"viability at 72 h, 2 µM",[25],72%
same,Activity,Mus musculus [26],2.42%
same,Activity,Mus musculus [27],8.05 M/uL
same,Activity,Mus musculus [28],7.78 M/uL
same,Activity,Erythrocyte [29],Active
same,Activity,Mus musculus [30],10%
same,Activity,Erythrocyte [31],Non-Toxic
same,Activity,Erythrocyte [32],Active
same,Activity,Erythrocyte [33],Active
same,fold change (FC),[34],0.7
same,Activity,Erythrocyte [35],Toxic
same,Activity,Mus musculus [36],15.05 K/uL
same,Activity,Erythrocyte [37],inactive
same,fold change (FC),[38],1.7
same,inhibition,[39],inactive
same,half-life,[40],7.2 h
same,fold change (FC),[41],3.8
same,fold change (FC),[42],2
same,fold change (FC),[43],2.3
same,fold change (FC),[44],4.8
same,AUC(0-inf),[45],8860 ng·h/mL
same,solubility,[46],3.38 µg/mL
same,Activity,Mus musculus [47],58.98%
same,Activity,Mus musculus [48],35.85 K/uL
same,Activity,Mus musculus [49],8.8%
same,bioavailability,[50],25%
same,clearance,[51],8.2 mL/min/kg
same,Activity,Mus musculus [52],8.15 g/dL
same,fold change (FC),[53],1.6
same,half-life,[54],3.8 h
same,fold change (FC),[55],1.8
same,Activity,Erythrocyte [56],Dose-dependent effect
same,Vd,[57],0.3 L/kg
